Structures are written as SMILES.

human recombinant GPR65, sequence (Q8IYL9 whole entry): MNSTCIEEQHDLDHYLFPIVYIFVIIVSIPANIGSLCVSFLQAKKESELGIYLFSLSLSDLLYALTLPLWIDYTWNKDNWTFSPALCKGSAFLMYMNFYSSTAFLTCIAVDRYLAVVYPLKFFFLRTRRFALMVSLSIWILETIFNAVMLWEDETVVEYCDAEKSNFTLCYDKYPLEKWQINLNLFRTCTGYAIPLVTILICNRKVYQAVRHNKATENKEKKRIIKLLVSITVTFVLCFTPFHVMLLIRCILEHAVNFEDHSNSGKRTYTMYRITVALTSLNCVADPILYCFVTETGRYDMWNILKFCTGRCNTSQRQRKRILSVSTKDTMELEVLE

In the assay the target is human recombinant GPR65 (Homo sapiens, UniProt Q8IYL9). Kind of assay: Human GPR65 cAMP HTRF antagonist assay. It is filed as cell-based. In short, it runs like this:
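Antagonism measured as suppression of the cAMP rise when pH is dropped to 7.2 (control wells pH 7.9) in 1321N1 cells stably carrying human GPR65. Cells in KRH with 1 mM IBMX and 200 μM EDTA saw compound 30 min, then acid stimulation 30 min; HTRF cAMP detection, normalised, 4-parameter logistic IC50.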
As to `CO[C@H]1C[C@@H](Oc2ccc(-c3cc(F)c(NC(=O)N4[C@H]5CC[C@@H]4c4c[nH]c(=O)cc4C5)cc3Cl)cn2)C1` [Compound 321, (6S,9R)-N-(5-Chloro-2-fluoro-4-(6-((1s,3S)-3-methoxycyclobutoxy)pyridin-3-yl)phenyl)-3-oxo-3,5,6,7,8,9-hexahydro-2H-6,9-epiminocyclohepta[c]pyridine-10-carboxamide], the IC50 was less than 0.5 µM. With `O=C(Nc1cc(Cl)c(-c2ccc(OCC(F)F)nc2)cc1F)N1[C@H]2CC[C@@H]1c1c[nH]c(=O)cc1C2` [Compound 322, (6S,9R)-N-(5-Chloro-4-(6-(2,2-difluoroethoxy)pyridin-3-yl)-2-fluorophenyl)-3-oxo-3,5,6,7,8,9-hexahydro-2H-6,9-epiminocyclohepta[c]pyridine-10-carboxamide], the IC50 is less than 0.5 µM. For `O=C(Nc1cc(Cl)c(-c2cc(F)c3nonc3c2)cc1F)N1[C@H]2CC[C@@H]1c1n[nH]c(=O)cc1C2` [Compound 323, (6S,9R)-N-(5-Chloro-2-fluoro-4-(7-fluorobenzo[c][1,2,5]oxadiazol-5-yl)phenyl)-3-oxo-3,5,6,7,8,9-hexahydro-2H-6,9-epiminocyclohepta[c]pyridazine-10-carboxamide] the value was less than 0.5 µM. With `O=C(Nc1cc(Cl)c(-c2ccc(OC(F)F)nc2)cc1F)N1[C@H]2CC[C@@H]1c1ccnc(F)c1C2` [Compound 324, (5R,8S)-N-(5-Chloro-4-(6-(difluoromethoxy)pyridin-3-yl)-2-fluorophenyl)-1-fluoro-6,7,8,9-tetrahydro-5H-5,8-epiminocyclohepta[c]pyridine-10-carboxamide], the IC50 was less than 0.5 µM. `O=C(Nc1cc(Cl)c(-c2ccc(OC(F)F)nc2)cc1F)N1[C@H]2CC[C@@H]1c1c[nH]c(=O)cc1C2` [Compound 325, (6S,9R)-N-(5-Chloro-4-(6-(difluoromethoxy)pyridin-3-yl)-2-fluorophenyl)-3-oxo-3,5,6,7,8,9-hexahydro-2H-6,9-epiminocyclohepta[c]pyridine-10-carboxamide]: the IC50 is less than 0.5 µM.

With `O=C(Nc1cc(Cl)c(-c2cc3nonc3cc2F)cc1F)N1[C@H]2CC[C@@H]1c1n[nH]c(=O)cc1C2` [Compound 326, (6S,9R)-N-(5-Chloro-2-fluoro-4-(6-fluorobenzo[c][1,2,5]oxadiazol-5-yl)phenyl)-3-oxo-3,5,6,7,8,9-hexahydro-2H-6,9-epiminocyclohepta[c]pyridazine-10-carboxamide], the IC50 was less than 0.5 µM.

For the molecule `O=C(Nc1cc(Cl)c(-c2ccc3nonc3c2F)cc1F)N1[C@H]2CC[C@@H]1c1n[nH]c(=O)cc1C2` [Compound 327, (6S,9R)-N-(5-Chloro-2-fluoro-4-(4-fluorobenzo[c][1,2,5]oxadiazol-5-yl)phenyl)-3-oxo-3,5,6,7,8,9-hexahydro-2H-6,9-epiminocyclohepta[c]pyridazine-10-carboxamide], the IC50 is less than 0.5 µM. For `O=C(Nc1cc(Cl)c(-c2cnc(OCC(F)(F)F)c(F)c2)cc1F)N1[C@H]2CC[C@@H]1c1n[nH]c(=O)cc1C2` [Compound 328, (6S,9R)-N-(5-Chloro-2-fluoro-4-(5-fluoro-6-(2,2,2-trifluoroethoxy)pyridin-3-yl)phenyl)-3-oxo-3,5,6,7,8,9-hexahydro-2H-6,9-epiminocyclohepta[c]pyridazine-10-carboxamide] the value was less than 0.5 µM; for `O=C(Nc1cc(Cl)c(-c2ccc3nonc3c2)cc1F)N1[C@H]2CC[C@@H]1C(F)(F)c1c2ccnc1F` [Compound 329, (5S,8R)-N-(4-(Benzo[c][1,2,5]-oxadiazol-5-yl)-5-chloro-2-fluorophenyl)-1,9,9-trifluoro-6,7,8,9-tetrahydro-5H-5,8-epiminocyclohepta[c]pyridine-10-carboxamide], 0.5 to 5 µM. Regarding `O=C(Nc1cc(Cl)c(-c2ccc3nonc3c2)cc1F)N1[C@@H]2CC[C@H]1C(F)(F)c1c2ccnc1F` [Compound 330, (5R,8S)-N-(4-(Benzo[c][1,2,5]-oxadiazol-5-yl)-5-chloro-2-fluorophenyl)-1,9,9-trifluoro-6,7,8,9-tetrahydro-5H-5,8-epiminocyclohepta[c]pyridine-10-carboxamide], the IC50 was less than 0.5 µM. As for `O=C(Nc1cc(Cl)c(-c2ccc(OC(C(F)F)C(F)F)nc2)cc1F)N1[C@H]2CC[C@@H]1c1n[nH]c(=O)cc1C2` [Compound 331, (6S,9R)-N-(5-Chloro-2-fluoro-4-(6-((1,1,3,3-tetrafluoropropan-2-yl)oxy)pyridin-3-yl)phenyl)-3-oxo-3,5,6,7,8,9-hexahydro-2H-6,9-epiminocyclohepta[c]pyridazine-10-carboxamide], the half-inhibitory concentration (IC50) is less than 0.5 µM.

Regarding `O=C(Nc1cc(Cl)c(-c2ccc(OCCC(F)(F)F)nc2)cc1F)N1[C@H]2CC[C@@H]1c1c[nH]c(=O)cc1C2` [Compound 332, (6S,9R)-N-(5-Chloro-2-fluoro-4-(6-(3,3,3-trifluoropropoxy)pyridin-3-yl)phenyl)-3-oxo-3,5,6,7,8,9-hexahydro-2H-6,9-epiminocyclohepta[c]pyridine-10-carboxamide], the IC50 is less than 0.5 µM. To `O=C(Nc1cc(Cl)c(-c2cncc(C(F)F)c2)cc1F)N1[C@H]2CC[C@@H]1c1n[nH]c(=O)cc1C2` [Compound 333, (6S,9R)-N-(5-Chloro-4-(5-(difluoromethyl)pyridin-3-yl)-2-fluorophenyl)-3-oxo-3,5,6,7,8,9-hexahydro-2H-6,9-epiminocyclohepta[c]pyridazine-10-carboxamide] belongs less than 0.5 µM; to `O=C(Nc1cc(Cl)c(-c2ccc(OCC3CC3)nc2)cc1F)N1[C@H]2CC[C@@H]1c1c[nH]c(=O)cc1C2` [Compound 334, (6S,9R)-N-(5-Chloro-4-(6-(cyclopropylmethoxy)pyridin-3-yl)-2-fluorophenyl)-3-oxo-3,5,6,7,8,9-hexahydro-2H-6,9-epiminocyclohepta[c]pyridine-10-carboxamide], less than 0.5 µM; to `CC(C)COc1ccc(-c2cc(F)c(NC(=O)N3[C@H]4CC[C@@H]3c3c[nH]c(=O)cc3C4)cc2Cl)cn1` [Compound 335, (6S,9R)-N-(5-Chloro-2-fluoro-4-(6-isobutoxypyridin-3-yl)phenyl)-3-oxo-3,5,6,7,8,9-hexahydro-2H-6,9-epiminocyclohepta[c]pyridine-10-carboxamide], less than 0.5 µM. `O=C(Nc1cc(Cl)c(-c2ccc(OC3CCCC3)nc2)cc1F)N1[C@H]2CC[C@@H]1c1n[nH]c(=O)cc1C2` [Compound 336, (6S,9R)-N-(5-Chloro-4-(6-(cyclopentyloxy)pyridin-3-yl)-2-fluorophenyl)-3-oxo-3,5,6,7,8,9-hexahydro-2H-6,9-epiminocyclohepta[c]pyridazine-10-carboxamide]: the IC50 is less than 0.5 µM. To `CO[C@H]1CC[C@H](Oc2ccc(-c3cc(F)c(NC(=O)N4[C@H]5CC[C@@H]4c4n[nH]c(=O)cc4C5)cc3Cl)cn2)CC1` [Compound 337, (6S,9R)-N-(5-chloro-2-fluoro-4-(6-(((1r,4r)-4-methoxycyclohexyl)oxy)pyridin-3-yl)phenyl)-3-oxo-3,5,6,7,8,9-hexahydro-2H-6,9-epiminocyclohepta[c]pyridazine-10-carboxamide] belongs less than 0.5 µM; to `O=C(Nc1cc(Cl)c(-c2ccc(OCC3CC3(F)F)nc2)cc1F)N1[C@H]2CC[C@@H]1c1n[nH]c(=O)cc1C2` (stereo partly drawn) [Compound 338, (6S,9R)-N-(5-Chloro-4-(6-((2,2-difluorocyclopropyl)methoxy)pyridin-3-yl)-2-fluorophenyl)-3-oxo-3,5,6,7,8,9-hexahydro-2H-6,9-epiminocyclohepta[c]pyridazine-10-carboxamide], less than 0.5 µM; to `O=C(Nc1cc(Cl)c(-c2ccc3nonc3c2)cn1)N1[C@H]2CC[C@@H]1c1ccnc(F)c1C2` [Compound 339, (5R,8S)-N-(5-(Benzo[c][1,2,5]oxadiazol-5-yl)-4-chloropyridin-2-yl)-1-fluoro-6,7,8,9-tetrahydro-5H-5,8-epiminocyclohepta[c]pyridine-10-carboxamide], less than 0.5 µM. As to `O=C(Nc1cc(Cl)c(-c2ccc(N3CCOCC3)nc2)cc1F)N1[C@H]2CC[C@@H]1c1n[nH]c(=O)cc1C2` [Compound 340, (6S,9R)-N-(5-Chloro-2-fluoro-4-(6-morpholinopyridin-3-yl)phenyl)-3-oxo-3,5,6,7,8,9-hexahydro-2H-6,9-epiminocyclohepta[c]pyridazine-10-carboxamide], the IC50 is less than 0.5 µM. Take `O=C(Nc1cc(Cl)c(-c2ccc(N3CCC3)nc2)cc1F)N1[C@H]2CC[C@@H]1c1n[nH]c(=O)cc1C2` [Compound 341, (6S,9R)-N-(4-(6-(Azetidin-1-yl)pyridin-3-yl)-5-chloro-2-fluorophenyl)-3-oxo-3,5,6,7,8,9-hexahydro-2H-6,9-epiminocyclohepta[c]pyridazine-10-carboxamide]: the IC50 is less than 0.5 µM. Turning to `O=C(Nc1cc(Cl)c(-c2ccc(OC3CCOC3)nc2)cc1F)N1[C@H]2CC[C@@H]1c1n[nH]c(=O)cc1C2` (stereo partly drawn) [Compound 342, (6S,9R)-N-(5-Chloro-2-fluoro-4-(6-((tetrahydrofuran-3-yl)oxy)pyridin-3-yl)phenyl)-3-oxo-3,5,6,7,8,9-hexahydro-2H-6,9-epiminocyclohepta[c]pyridazine-10-carboxamide], the IC50 is less than 0.5 µM. For `CO[C@H]1CC[C@@H](Oc2ccc(-c3cc(F)c(NC(=O)N4[C@H]5CC[C@@H]4c4n[nH]c(=O)cc4C5)cc3Cl)cn2)CC1` [Compound 343, (6S,9R)-N-(5-Chloro-2-fluoro-4-(6-(((1s,4s)-4-methoxycyclohexyl)oxy)pyridin-3-yl)phenyl)-3-oxo-3,5,6,7,8,9-hexahydro-2H-6,9-epiminocyclohepta[c]pyridazine-10-carboxamide], the IC50 was less than 0.5 µM.

(Values after patent US20240368173A1, “TRICYCLIC GPR65 MODULATORS” (PATHIOS THERAPEUTICS LIMITED, priority 2021, published 2024).)
